Experimental findings from PMC3071879 (Journal of the American Chemical Society, 2011) are described below.

Common to all, as to assay type: biochemical
The target in one test is T1, PacU (Streptomyces coeruleorubidus, UniProt E2EKQ3).
T1 sequence (E2EKQ3 1-507): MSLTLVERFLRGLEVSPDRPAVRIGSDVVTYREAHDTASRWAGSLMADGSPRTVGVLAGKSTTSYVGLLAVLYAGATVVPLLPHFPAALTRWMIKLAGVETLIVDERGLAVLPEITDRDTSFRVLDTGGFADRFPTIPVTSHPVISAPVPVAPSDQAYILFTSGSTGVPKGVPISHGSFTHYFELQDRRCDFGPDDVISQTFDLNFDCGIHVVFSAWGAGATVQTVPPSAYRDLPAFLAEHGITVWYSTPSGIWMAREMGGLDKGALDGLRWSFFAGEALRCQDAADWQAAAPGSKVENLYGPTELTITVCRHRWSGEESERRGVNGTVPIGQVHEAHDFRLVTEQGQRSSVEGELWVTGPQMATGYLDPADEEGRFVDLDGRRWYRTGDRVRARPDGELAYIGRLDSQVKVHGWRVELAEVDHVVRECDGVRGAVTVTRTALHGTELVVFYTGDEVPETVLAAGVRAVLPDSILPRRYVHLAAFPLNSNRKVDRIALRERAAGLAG
Kind of test: ATP-[…]PPi exchange. The following applies: adenylation.

For the next test, the target named is T2, PacW (Streptomyces coeruleorubidus, UniProt F5BFC7).
T2 sequence (F5BFC7 1-507): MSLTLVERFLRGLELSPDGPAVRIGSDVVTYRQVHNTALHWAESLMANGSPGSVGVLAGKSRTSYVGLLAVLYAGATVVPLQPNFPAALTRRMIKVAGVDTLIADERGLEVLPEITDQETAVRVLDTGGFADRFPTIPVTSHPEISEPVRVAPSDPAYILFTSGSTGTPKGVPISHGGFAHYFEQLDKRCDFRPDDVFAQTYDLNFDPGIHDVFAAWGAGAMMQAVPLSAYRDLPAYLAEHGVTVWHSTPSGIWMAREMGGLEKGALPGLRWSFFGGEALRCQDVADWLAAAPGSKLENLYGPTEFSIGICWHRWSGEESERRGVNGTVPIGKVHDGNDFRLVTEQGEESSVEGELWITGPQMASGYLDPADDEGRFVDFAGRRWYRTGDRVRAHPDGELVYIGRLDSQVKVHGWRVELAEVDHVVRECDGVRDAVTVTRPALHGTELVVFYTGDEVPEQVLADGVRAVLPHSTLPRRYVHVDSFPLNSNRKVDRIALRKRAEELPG
As to the kind of experiment: ATP-[…]PPi exchange. The following applies: adenylation, DL mixture used.

A further test addresses PacV (Streptomyces coeruleorubidus, UniProt E2EKQ4). As to the kind of experiment: SDS-PAGE autoradiography of […]-methyl transfer. The note with it: methyl acceptor DABA tethered to holo-PacP; labelled compound.
Another test has as its target T3, PacP (Streptomyces coeruleorubidus, UniProt E2EKP8).
T3 sequence (E2EKP8 1-848): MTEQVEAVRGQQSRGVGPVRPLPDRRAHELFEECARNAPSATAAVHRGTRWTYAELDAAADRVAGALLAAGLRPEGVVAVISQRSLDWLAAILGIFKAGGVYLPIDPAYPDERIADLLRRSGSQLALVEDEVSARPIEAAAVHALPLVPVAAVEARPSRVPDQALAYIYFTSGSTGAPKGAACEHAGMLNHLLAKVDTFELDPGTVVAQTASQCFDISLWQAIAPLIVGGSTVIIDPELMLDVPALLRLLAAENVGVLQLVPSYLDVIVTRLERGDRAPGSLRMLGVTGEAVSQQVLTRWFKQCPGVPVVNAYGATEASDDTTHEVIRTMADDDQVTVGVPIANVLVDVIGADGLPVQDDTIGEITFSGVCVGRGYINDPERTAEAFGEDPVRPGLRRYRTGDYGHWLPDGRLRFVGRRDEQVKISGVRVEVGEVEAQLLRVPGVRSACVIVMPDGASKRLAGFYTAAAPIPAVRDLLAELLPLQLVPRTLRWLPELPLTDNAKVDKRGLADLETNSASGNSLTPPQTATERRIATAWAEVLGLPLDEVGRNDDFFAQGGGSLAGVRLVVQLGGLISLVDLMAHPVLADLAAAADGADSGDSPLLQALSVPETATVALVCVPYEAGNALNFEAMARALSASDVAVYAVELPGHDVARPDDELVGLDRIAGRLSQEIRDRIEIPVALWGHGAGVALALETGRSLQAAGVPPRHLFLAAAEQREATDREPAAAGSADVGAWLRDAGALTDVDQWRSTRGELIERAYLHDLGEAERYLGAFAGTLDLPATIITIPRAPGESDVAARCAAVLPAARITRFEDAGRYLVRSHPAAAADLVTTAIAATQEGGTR
Kind of test: ATP-[…]PPi exchange. The note with it: adenylation.

Chain of PacV (E2EKQ4 1-250): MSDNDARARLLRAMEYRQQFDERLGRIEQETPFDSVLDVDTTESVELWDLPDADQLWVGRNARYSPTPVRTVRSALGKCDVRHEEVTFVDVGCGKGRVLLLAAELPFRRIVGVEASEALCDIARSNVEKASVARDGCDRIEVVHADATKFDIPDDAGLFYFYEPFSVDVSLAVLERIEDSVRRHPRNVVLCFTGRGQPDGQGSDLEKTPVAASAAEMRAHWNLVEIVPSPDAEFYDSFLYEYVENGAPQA

Take `C[C@H](N)C(=O)O` [L-Ala]: the “ATP-[32P]PPi exchange” value on PacU was “exhibited a strong preference toward reversible formation of L-Ala-AMP”.

Turning to `NC(Cc1cccc(O)c1)C(=O)O` (racemic) [m-Tyr], the “ATP-[32P]PPi exchange” value at PacW was “demonstrated a strong preference for the activation of m-Tyr over other aromatic amino acids”.

`C[S+](CC[C@H](N)C(=O)O)C[C@H]1O[C@@H](n2cnc3c(N)ncnc32)[C@H](O)[C@@H]1O` (stereo partly shown) [S-adenosylmethionine]: the “SDS-PAGE autoradiography of 14C-methyl transfer” value on PacV is “PacV indeed transferred the methyl group from S-adenosylmethionine (SAM) to holo-PacP”.

As for `C[C@H](N)[C@H](N)C(=O)O` [2S,3S-DABA], at PacP, the “ATP-[32P]PPi exchange” value is given as “PacP exhibited a preference toward reversible formation of 2S,3S-DABA-AMP”.
